For one experiment, the system named is H522 cells. As to the kind of experiment: CCK8 antiproliferative assay, H522 cells. It counts as cell-based. The settings on record: Homo sapiens, NCI-H522, 72 h. From the text: (§1) The human cancer cell lines (H1975, H2228) used in this study were purchased from the Guangzhou ginny ou biotechnology Co., Ltd. (Guangzhou, China). The human cancer cell lines (NCI-H522) used in this study were purchased from the Shenzhen Haodi Huatuo Biotechnology Co., LTD (Shenzhen, China). The human cancer cell lines (LOVO, HLF, BJ, LO2) used in this study were purchased from the Laboratory Animal Service Center at Sun Yat-sen University (Guangzhou, China). Cell lines were cultivated in 1640 containing 10% (v/v) heat-inactivated fetal bovine serum (FBS), 100 units/mL penicillin, and 100 μg/mL streptomycin. Cell lines LOVO, HLF, BJ, and LO2 were cultivated in DMEM containing 10% (v/v) heat-inactivated fetal bovine serum (FBS), 100 units/mL penicillin, and 100 μg/mL streptomycin.
(Tetrazolium dyes change colour on reduction, which living cells bring about.)

Experiment [1] deals with H1975 (EGFR T790M/L858R) cells. Description: CCK8 antiproliferative assay, H1975 cells. The class given is cell-based, human.
From the text: as §1, with “Cell lines were cultivated in 1640 containing 10% (v/v) heat-inactivated fetal bovine serum (FBS), 100 units/mL penicillin, and 100 μg/mL streptomycin.” left out

Another experiment deals with H2228 (EML4-ALK) cells. Description: CCK8 antiproliferative assay, H2228 cells. It counts as cell-based, human. The settings on record: read-out: IC50 H2228.
From the text: as §1, with “Cell lines were cultivated in 1640 containing 10% (v/v) heat-inactivated fetal bovine serum (FBS), 100 units/mL penicillin, and 100 μg/mL streptomycin.” left out

Experiment [2] concerns 293A (human embryonic kidney cells). Description: Cytotoxicity test on nontumorigenic cells, 293A. It counts as cell-based. Conditions: Homo sapiens, 293A, read-out: Toxicity to normal cells, IC50 293A. From the text:
(§2) It is critical to evaluate the balance between the safety and efficacy of drugs for the development of new drugs; thus, we then conducted a cytotoxicity test on […] types of nontumorigenic cell lines from different origins, including LO2 (human normal liver cells), HK2 (human kidney proximal convoluted tubule epithelial cells), HLF (human embryonic lung fibroblast), 293A (human embryonic kidney cells), and HUVEC (human umbilical vein endothelial cells). […] In addition, we evaluated the compound’s safety in vivo by performing acute toxicity tests in mice, and 9j was injected intravenously at concentrations of 100 mg/kg, 150 mg/kg, and 300 mg/kg.
(§3) A total of 7000 cells per well were seeded in a 96-well plate with at least three technical replicates; then, exposed to different concentrations (10, 5, 1, 0.1, 0.05, 0.01 uM) of the test compounds for 72 h. After the treatment, CCK8 (Sigma, St. Louis, MO, USA) was added to each well under sterile conditions (to a final concentration of 10% of the total volume) and the plates were incubated for 2–4 h at 37 °C. Absorbance was measured at 450 nm in a microplate reader.

Experiment [3] has as its system LO2 (human normal liver cells). Description: Cytotoxicity test on nontumorigenic cells, LO2. It counts as cell-based. The settings on record: Homo sapiens; LO2, mean ± SE; read-out: Toxicity to normal cells, IC50 LO2.
From the text: as §2, §3

Experiment [4] concerns HLF (human embryonic lung fibroblast). As to the kind of experiment: Cytotoxicity test on nontumorigenic cells, HLF. It counts as cell-based. Conditions: Homo sapiens, Fibroblast, read-out: Toxicity to normal cells, IC50 HLF.
From the text: as §2, §3

For experiment [5], the system named is HUVEC (human umbilical vein endothelial cells). As to the kind of experiment: Cytotoxicity test on nontumorigenic cells, HUVEC. The class given is cell-based. The settings on record: Homo sapiens; HUVEC, mean ± SE; read-out: Toxicity to normal cells, IC50 HUVEC.
From the text: as §2, §3

Experiment [6] has as its system HK2 (human kidney proximal convoluted tubule epithelial cells). As to the kind of experiment: Cytotoxicity test on nontumorigenic cells, HK2. It counts as cell-based. Conditions: Homo sapiens, Epithelial cell; HK2, mean ± SE; read-out: Toxicity to normal cells, IC50 HK2.
From the text: as §2, §3

Where [7] appears, read: Homo sapiens, NCI-H1975, 72 h, CCK8 assay, 72 h, H1975 (EGFR T790M/L858R), read-out: IC50 H1975.
Where [8] appears, read: Homo sapiens, NCI-H2228, 72 h, CCK8 assay, 72 h, H2228 (EML4-ALK).
[9] abbreviates: CCK8 assay, 72 h, H1975 (EGFR T790M/L858R), read-out: IC50 H1975.

Among the data in PMC10004195, “Novel Dual-Target Kinase Inhibitors of EGFR and ALK Were Designed, Synthesized, and Induced Cell Apoptosis in Non-Small Cell Lung Cancer” (Molecules, 2023) are IC50 values, retold here.

Molecules are shown by their SMILES. Like-named read-outs stand apart in the source and are kept apart here. Where only a bound is given, the exact number is not on record here.

Usually IC50 stands for the midpoint of a concentration-inhibition curve.

As to `C=CC(=O)Nc1cc(Nc2ncc(Cl)c(Nc3ccccc3[S+]([O-])C3CC3)n2)c(OC)cc1C1CCN(C)CC1` (stereo not shown) [9a, N-(5-((5-Chloro-4-((2-(cyclopropylsulfinyl)phenyl)amino)pyrimidin-2-yl)amino)-4-methoxy-2-(1-methylpiperidin-4-yl)phenyl)acrylamide], the results for the IC50 (in the experiment with H522 cells; in experiment [1] (setting [7]); in the experiment on H2228 (EML4-ALK) cells (setting [8])) were greater than 10000 nM, 451 ± 70 nM and 121 ± 90 nM, respectively.

Turning to `C=CC(=O)Nc1cc(Nc2ncc(Cl)c(Nc3ccccc3[S+]([O-])CC3CC3)n2)c(OC)cc1C1CCN(C)CC1` (stereo not shown) [9b, N-(5-((5-Chloro-4-((2-((cyclopropylmethyl)sulfinyl)phenyl)amino)pyrimidin-2-yl)amino)-4-methoxy-2-(1-methylpiperidin-4-yl)phenyl)acrylamide], the IC50 in the experiment with H522 cells was greater than 10000 nM; in experiment [1] (setting [9]), 69 ± 7 nM; in experiment [1] (setting [7]) it was 68.9 nM; with H2228 (EML4-ALK) cells (CCK8 assay, 72 h, H2228 (EML4-ALK)), 99 ± 7 nM; with H2228 (EML4-ALK) cells (setting [8]) it was 98.9 nM.

`C=CC(=O)Nc1cc(Nc2ncc(Cl)c(Nc3ccc(F)cc3[S+]([O-])CC3CC3)n2)c(OC)cc1C1CCN(C)CC1` (stereo not shown) [9c, N-(5-((5-Chloro-4-((2-((cyclopropylmethyl)sulfinyl)-4-fluorophenyl)amino)pyrimidin-2-yl)amino)-4-methoxy-2-(1-methylpiperidin-4-yl)phenyl)acrylamide]: the IC50 is greater than 10000 nM with H522 cells, 271 ± 130 nM in experiment [1] (setting [7]) and 103 ± 70 nM in the experiment with H2228 (EML4-ALK) cells (setting [8]).

Regarding `C=CC(=O)Nc1cc(Nc2ncc(Cl)c(Nc3ccc(Cl)cc3[S+]([O-])CC3CC3)n2)c(OC)cc1C1CCN(C)CC1` (stereo not shown) [9d, N-(5-((5-Chloro-4-((4-chloro-2-((cyclopropylmethyl)sulfinyl)phenyl)amino)pyrimidin-2-yl)amino)-4-methoxy-2-(1-methylpiperidin-4-yl)phenyl)acrylamide], the IC50 in the experiment on H522 cells was greater than 10000 nM; in experiment [1] (setting [7]) it was 114 ± 80 nM; in the experiment with H2228 (EML4-ALK) cells (setting [8]) it was 89 ± 30 nM.

In the case of `C=CC(=O)Nc1cc(Nc2ncc(Cl)c(Nc3ccccc3[S+]([O-])CC)n2)c(OC)cc1C1CCN(C)CC1` (stereo not shown) [9e, N-(5-((5-Chloro-4-((2-(ethylsulfinyl)phenyl)amino)pyrimidin-2-yl)amino)-4-methoxy-2-(1-methylpiperidin-4-yl)phenyl)acrylamide], the IC50 is greater than 10000 nM in the experiment with H522 cells, 170 ± 20 nM in experiment [1] (setting [7]) and 97.7 ± 50 nM in the experiment with H2228 (EML4-ALK) cells (setting [8]).

Take `C=CC(=O)Nc1cc(Nc2ncc(Cl)c(Nc3ccc(F)cc3[S+]([O-])CC)n2)c(OC)cc1C1CCN(C)CC1` (stereo not shown) [9f, N-(5-((5-Chloro-4-((2-(ethylsulfinyl)-4-fluorophenyl)amino)pyrimidin-2-yl)amino)-4-methoxy-2-(1-methylpiperidin-4-yl)phenyl)acrylamide]: the values for the IC50 (in the experiment on H522 cells; in experiment [1] (setting [7]); in the experiment on H2228 (EML4-ALK) cells (setting [8])) were greater than 10000 nM, 550 ± 90 nM and 92.8 ± 60 nM, respectively.

As to `C=CC(=O)Nc1cc(Nc2ncc(Cl)c(Nc3ccc(Cl)cc3[S+]([O-])CC)n2)c(OC)cc1C1CCN(C)CC1` (stereo not shown) [9g, N-(5-((5-Chloro-4-((4-chloro-2-(ethylsulfinyl)phenyl)amino)pyrimidin-2-yl)amino)-4-methoxy-2-(1-methylpiperidin-4-yl)phenyl)acrylamide], the half-maximal inhibitory concentration (IC50) in the experiment on H522 cells is greater than 10000 nM; in experiment [1] (setting [7]), 69 ± 10 nM; in the experiment on H2228 (EML4-ALK) cells (setting [8]), 104 ± 50 nM.

Consider `C=CC(=O)Nc1cc(Nc2ncc(Cl)c(Nc3ccccc3[S+]([O-])C(C)C)n2)c(OC)cc1C1CCN(C)CC1` (stereo not shown) [9h, N-(5-((5-Chloro-4-((2-(isopropylsulfinyl)phenyl)amino)pyrimidin-2-yl)amino)-4-methoxy-2-(1-methylpiperidin-4-yl)phenyl)acrylamide], for which the IC50 with H522 cells was greater than 10000 nM; in experiment [1] (setting [9]) it was 83.9 ± 30 nM; in experiment [1] (setting [7]) it was 68.9 to 78.2 nM; with H2228 (EML4-ALK) cells (setting [8]), 76.6 ± 20 nM.

Take `C=CC(=O)Nc1cc(Nc2ncc(Cl)c(Nc3ccc(F)cc3[S+]([O-])C(C)C)n2)c(OC)cc1C1CCN(C)CC1` (stereo not shown) [9i, N-(5-((5-Chloro-4-((4-fluoro-2-(isopropylsulfinyl)phenyl)amino)pyrimidin-2-yl)amino)-4-methoxy-2-(1-methylpiperidin-4-yl)phenyl)acrylamide]: the figures for the IC50 (in the experiment with H522 cells; in experiment [1] (setting [7]); in the experiment with H2228 (EML4-ALK) cells (setting [8])) were greater than 10000 nM, 309 ± 110 nM and 98.1 ± 60 nM, respectively.

Consider `Cc1cc(Nc2ncc(Cl)c(Nc3ccccc3S(=O)(=O)C(C)C)n2)c(OC(C)C)cc1C1CCNCC1` [Ceritinib, reference compound], for which the values for the IC50 (in experiment [1] (setting [7]); in the experiment on H2228 (EML4-ALK) cells (setting [8])) were 78.3 ± 30 nM and 22.1 ± 8 nM, respectively.

For the molecule `C=CC(=O)Nc1cc(Nc2nccc(-c3cn(C)c4ccccc34)n2)c(OC)cc1N(C)CCN(C)C` [Osimertinib, reference compound], the IC50 in experiment [2] came out at 2250 ± 20 nM; in experiment [1] (Homo sapiens, NCI-H1975, 72 h, read-out: IC50 H1975), 4.1 ± 1 nM; in experiment [1] (Homo sapiens, NCI-H1975, read-out: IC50 H1975 (Table 2)) it was 4.1 ± 1 nM; in experiment [3], 1720 ± 50 nM; with H2228 (EML4-ALK) cells (Homo sapiens, NCI-H2228, 72 h), 2016 ± 8 nM; in experiment [4], 3240 ± 80 nM. Besides, the IC50 in experiment [5] is 4340 ± 10 nM; in experiment [6], 2130 ± 90 nM.
